Source: US20120053148A1, “INHIBITORS OF HEPATITIS C VIRUS” (GILEAD SCIENCES, INC., priority 2010, published 2012)
Where two headings read alike, the source gives them in different places.

Columns and labels:
[1] = system: HCV Replicon IB; test: HCV replicon assay in Huh-7 cells, genotype 1b (Rluc luciferase readout); type: cell-based, hepatitis C virus; details: for inhibition at 10 µM: 72 h, Huh-7 HCV replicon cells, read-out: % inhibition @ 10 μM HCV Replicon IB; for EC50: read-out: EC50_HCV1B_
[2] = system: HCV Replicon IA; test: HCV replicon assay in Huh-7 cells, genotype 1a; type: cell-based; details: Hepatitis C virus, 72 h, Huh-7 HCV replicon cells, 3 days
[3] = Hepatitis C virus, Huh-7, 72 h, HCV1B replicon, Huh-7 cells, 3 days

Row | SMILES | inhibition at 10 µM ([1]; Hepatitis C virus, 3 days) [%] | inhibition at 10 µM [2] [%] | EC50 [1, 3] [nM] | also measured
1 | C[C@@H](NC(=O)c1cc(O)c2cc(-c3cn[nH]c3)cc(C(F)(F)F)c2n1)c1ccccc1 (single isomer, unassigned) [Compound 18] | 55.8 | 55.3 | – | –
2 | O=C(NCc1ccccc1)c1cc(O)c2cc(-c3cn[nH]c3)cc(C(F)(F)F)c2n1 [Compound 5] | 99.2 | 99.2 | – | –
3 | O=C(NCc1cccs1)c1cc(O)c2cc(-c3ccoc3)cc(C(F)(F)F)c2n1 [Compound 7] | 99.8 | 99.2 | – | –
4 | O=C(NCc1cncs1)c1cc(O)c2cc(-c3cn[nH]c3)cc(C(F)(F)F)c2n1 [Compound 8] | 94 | 98.8 | – | –
5 | O=C(NCc1nccs1)c1cc(O)c2cc(-c3cn[nH]c3)cc(C(F)(F)F)c2n1 [Compound 9] | 98.5 | 98.1 | – | –
6 | O=C(NCc1cocn1)c1cc(O)c2cc(-c3cn[nH]c3)cc(C(F)(F)F)c2n1 [Compound 10] | 74.3 | 80.7 | – | –
7 | O=C(NCc1cccnc1)c1cc(O)c2cc(-c3cn[nH]c3)cc(C(F)(F)F)c2n1 [Compound 11] | 66.1 | 63.2 | – | –
8 | O=C(NCc1ccccn1)c1cc(O)c2cc(-c3cn[nH]c3)cc(C(F)(F)F)c2n1 [Compound 12] | 99.2 | 98.2 | – | –
9 | O=C(NCc1ccncc1)c1cc(O)c2cc(-c3cn[nH]c3)cc(C(F)(F)F)c2n1 [Compound 13] | 20.7 | 43.4 | – | –
10 | O=C(NCc1ccc(Cl)s1)c1cc(O)c2cc(-c3cc[nH]n3)cc(C(F)(F)F)c2n1 [Compound 14] | 68.6 | 84.2 | – | –
11 | O=C(NCc1ccncn1)c1cc(O)c2cc(-c3cn[nH]c3)cc(C(F)(F)F)c2n1 [Compound 15] | 47.3 | 59.3 | – | –
12 | O=C(NCCc1ccccc1)c1cc(O)c2cc(-c3cn[nH]c3)cc(C(F)(F)F)c2n1 [Compound 16] | 96.7 | 93 | – | –
13 | Cc1cccnc1CNC(=O)c1cc(O)c2cc(-c3cn[nH]c3)cc(C(F)(F)F)c2n1 [Compound 17] | 96.4 | 98.3 | – | –
14 | O=C(Nc1ccccc1)c1cc(O)c2cc(-c3cn[nH]c3)cc(C(F)(F)F)c2n1 [Compound 19] | 71.1 | 98.5 | – | –
15 | CC(NC(=O)c1cc(O)c2cc(-c3cn[nH]c3)cc(C(F)(F)F)c2n1)c1ccccn1 (stereo not shown) [Compound 20] | 89 | 86.1 | – | –
16 | O=C(NCc1ccc(Cl)s1)c1cc(O)c2cc(-c3ccoc3)cc(C(F)(F)F)c2n1 [Compound 23] | 99.4 | 99.9 | – | –
17 | O=C(NCc1cccs1)c1cc(Cl)c2cc(-c3ccoc3)cc(C(F)(F)F)c2n1 [Compound 25] | 99.7 | 98.7 | – | –
18 | COc1cc(C(=O)NCc2cccs2)nc2c(C(F)(F)F)cc(-c3ccoc3)cc12 [Compound 27] | 80.3 | 65.5 | – | –
19 | Cc1cc(C(=O)NCc2cccs2)nc2c(C(F)(F)F)cc(-c3ccoc3)cc12 [Compound 28] | 100 | 99.8 | – | –
20 | O=C(c1cc(O)c2cc(-c3ccoc3)cc(C(F)(F)F)c2n1)N1CC=C(c2ccccc2)CC1 [Compound 29] | 37.7 | 87.4 | – | –
21 | O=C(c1cc(O)c2cc(-c3ccoc3)cc(C(F)(F)F)c2n1)N1CCC(c2ccc(F)cc2)CC1 [Compound 30] | 74.9 | 95.3 | – | –
22 | O=C(c1cc(O)c2cc(-c3ccoc3)cc(C(F)(F)F)c2n1)N1CCC(c2cccc(F)c2)CC1 [Compound 31] | 58.1 | 98.1 | – | –

Row | SMILES | inhibition at 10 µM ([1]; Hepatitis C virus, 3 days) [%] | inhibition at 10 µM [2] [%] | EC50 [1, 3] [nM] | also measured
23 | O=C(NCc1cccs1)c1cc(O)c2cc(-c3ccccc3)cc(C(F)(F)F)c2n1 [Compound 34] | 98.3 | 97.8 | – | –
24 | O=C(NCc1cccs1)c1cc(O)c2cc(-c3cc[nH]n3)cc(C(F)(F)F)c2n1 [Compound 35] | 94.5 | 94.2 | – | –
25 | O=C(NCc1cccs1)c1cc(O)c2cc(-c3cn[nH]c3)cc(C(F)(F)F)c2n1 [Compound 36] | 99.4 | 99.3 | – | –
26 | Nc1cc(O)c2cc(-c3ccccc3)cc(C(F)(F)F)c2n1 [Compound 39] | 65 | 92.5 | – | –
27 | O=C(Cc1cccs1)Nc1cc(O)c2cc(-c3ccccc3)cc(C(F)(F)F)c2n1 [Compound 40] | 97.6 | 99.7 | – | –
28 | O=C(NCc1cccs1)c1nc(O)c2cc(-c3ccccc3)cc(C(F)(F)F)c2n1 [Compound 47, 4-oxo-6-phenyl-8-trifluoromethyl-3,4-dihydro-quinazoline-2-carboxylic acid (thiophen-2-ylmethyl)-amide] | 99.8 | 99.7 | – | –
29 | O=C(NCc1cccs1)c1nc(O)c2cc(-c3ccoc3)cc(C(F)(F)F)c2n1 [Compound 48] | 99.9 | 99.4 | – | –
30 | O=C(NCc1cccs1)c1nc(O)c2cc(-c3cn[nH]c3)cc(C(F)(F)F)c2n1 [Compound 49] | 99 | 99.7 | – | –
31 | Cc1cc(-c2nnc(N[C@H]3C[C@](O)(CO)C3)o2)nc2c(C(C)(C)C)cc(C3CC3)cc12 [Compound 513] | – | – | – | EC50 ([1]; HCV1B replicon, Huh-7 cells, 3 days): 8.11 nM
32 | Cc1cc(-c2nnc(N[C@H]3C[C@@](O)(CO)C3)o2)nc2c(C(C)(C)C)cc(C3CC3)cc12 [Compound 514] | – | – | 11.2 | –
33 | Cc1cc(-c2nnc(NC3CC4(COCO4)C3)o2)nc2c(C(C)(C)C)cc(C3CC3)cc12 (stereo not shown) [Compound 515] | – | – | 15.9 | –
34 | Cc1cc(-c2nnc(N[C@H]3C[C@@](O)(CF)C3)o2)nc2c(C(C)(C)C)cc(C3CC3)cc12 [Compound 516] | – | – | 7.15 | –
35 | Cc1cc(-c2nnc(N[C@H]3C[C@@](O)(CF)C3)o2)nc2c(C(C)(C)C)cc(OCC(F)(F)F)cc12 [Compound 517] | – | – | 5.76 | –
36 | Cc1cc(-c2nnc(N[C@H]3C[C@@H](O)C3)s2)nc2c(C(C)(C)C)cc(OCC(F)(F)F)cc12 [Compound 518] | – | – | 51.3 | –
37 | Cc1cc(-c2nnc(Nc3cccnc3)s2)nc2c(C(C)(C)C)cc(OCC(F)(F)F)cc12 [Compound 519] | – | – | 21.1 | –
38 | CC(C)(C)c1cc(OCC(F)(F)F)cc2c(N)cc(-c3nnc(Nc4ccccn4)o3)nc12 [Compound 520] | – | – | 0.44 | –
39 | CC(C)(C)c1cc(OCC(F)(F)F)cc2c(Cl)cc(-c3nnc(NCC4OCCO4)o3)nc12 [Compound 522] | – | – | 5.85 | –
40 | Cc1cc(-c2nnc(NCC3OCCO3)o2)nc2c(C(C)(C)C)cc(OCC(F)(F)C(F)(F)F)cc12 [Compound 523] | – | – | 233 | –
41 | Cc1cc(-c2nnc(NCC3OCCO3)o2)nc2c(C(C)(C)C)cc(OC(F)F)cc12 [Compound 524] | – | – | 1.25 | –
42 | Cc1cc(-c2nnc(N[C@H]3C[C@@](C)(O)C3)o2)nc2c(C(C)(C)C)cc(OC(F)F)cc12 [Compound 525] | – | – | 0.74 | –
43 | Cc1cc(-c2nnc(NCC3OCCO3)o2)nc2c(C(C)(C)C)cc(OCC(F)F)cc12 [Compound 526] | – | – | 1.64 | –
44 | Cc1cc(-c2nnc(N[C@H]3C[C@](O)(CF)C3)o2)nc2c(C(C)(C)C)cc(OC(F)F)cc12 [Compound 527] | – | – | 0.81 | –

Row | SMILES | inhibition at 10 µM ([1]; Hepatitis C virus, 3 days) [%] | inhibition at 10 µM [2] [%] | EC50 [1, 3] [nM] | also measured
45 | Cc1cc(-c2nnc(N[C@H]3C[C@](O)(CF)C3)o2)nc2c(C(C)(C)C)cc(OCC(F)F)cc12 [Compound 528] | – | – | 0.41 | –
46 | Cc1cc(-c2nnc(N[C@H]3C[C@](O)(CF)C3)o2)nc2c(C(C)(C)C)cc(OCCF)cc12 [Compound 529] | – | – | 1.37 | –
47 | CSC(F)(F)Oc1cc(C(C)(C)C)c2nc(-c3nnc(N[C@H]4C[C@](O)(CF)C4)o3)cc(C)c2c1 [Compound 530] | – | – | 2.81 | –
48 | Cc1cc(-c2nnc(NCC3OCCO3)o2)nc2c(C(C)(C)C)cc(OCC3CC3)cc12 [Compound 532] | – | – | – | EC50 ([1]; Hepatitis C virus, Huh-7, 72 h): 41.2 nM
49 | Cc1cc(-c2nnc(NCC3OCCO3)o2)nc2c(C(C)(C)C)cc(OCC3OCCO3)cc12 [Compound 533] | – | – | 306 | –
50 | Cc1cc(-c2nnc(N[C@H]3C[C@@H](O)C3)o2)nc2c(C(C)(C)C)cc(OCC(C)C)cc12 [Compound 534] | – | – | – | EC50 ([1]; Hepatitis C virus, Huh-7, 72 h): 154 nM
51 | Cc1cc(-c2nnc(N[C@H]3C[C@@H](O)C3)o2)nc2c(C(C)(C)C)cc(OCCF)cc12 [Compound 535] | – | – | 2.54 | –
52 | Cc1cc(-c2nnc(N[C@H]3C[C@@H](O)C3)o2)nc2c(C(C)(C)C)cc(OCC(C)(C)O)cc12 [Compound 536] | – | – | – | EC50 ([1]; Hepatitis C virus, Huh-7, 72 h): 31.4 nM
53 | Cc1cc(-c2nnc(Nc3cccnc3)o2)nc2c(C(C)(C)C)cc(OCC(C)(C)O)cc12 [Compound 537] | – | – | 69.1 | –
54 | Cc1cc(-c2nnc(NCC3OCCO3)o2)nc2c(OC(F)(F)F)cc(OCC(F)(F)F)cc12 [Compound 539] | – | – | 4.12 | –
55 | Cc1cc(-c2nnc(NCC3OCCO3)o2)nc2c(C3(C)OCCO3)cc(C3CC3)cc12 [Compound 540] | – | – | 36.6 | –
56 | CC(=O)c1cc(C2CC2)cc2c(C)cc(-c3nnc(NCC4OCCO4)o3)nc12 [Compound 541] | – | – | 18.6 | –
57 | Cc1cc(-c2nnc(NCC3OCCO3)o2)nc2c(C(C)(C)O)cc(C3CC3)cc12 [Compound 542] | – | – | 43.8 | –
58 | CCC(C)(O)c1cc(C2CC2)cc2c(C)cc(-c3nnc(NCC4OCCO4)o3)nc12 (stereo not shown) [Compound 543] | – | – | 155 | –
59 | Cc1cc(-c2nnc(NCC3OCCO3)o2)nc2c(C3(C)SCCS3)cc(C3CC3)cc12 [Compound 544] | – | – | 46.7 | –
60 | COC(C)(C)c1cc(C2CC2)cc2c(C)cc(-c3nnc(NCC4OCCO4)o3)nc12 [Compound 545] | – | – | 7.68 | –
61 | Cc1cc(-c2nnc(NCC3OCCO3)o2)nc2c(C(C)(C)F)cc(C3CC3)cc12 [Compound 546] | – | – | 7.48 | –
62 | Cc1cc(-c2nnc(NCC3OCCO3)o2)nc2c(S(C)(=O)=O)cc(C3CC3)cc12 [Compound 547] | – | – | 185 | –
63 | Cc1cc(-c2nnc(NCC3OCCO3)o2)nc2c(OC(C)(C)C)cc(C3CC3)cc12 [Compound 548] | – | – | 37.1 | –
64 | Cc1cc(C(=O)NCc2cnccn2)nc2c(-c3ccccc3)cc(C3CC3)cc12 [Compound 549] | – | – | 65.5 | –
